According to patent publication US9708318B2, “Bicyclic heterocycles as FGFR4 inhibitors” (Incyte Corporation, priority 2015, dated 2017):
pIC50: −log10 of the molar value. Read-outs that look alike come from different tables or passages of the source.

Key:
[1] = biological target: FGFR2 (Homo sapiens (Human), UniProt P21802); assay: FGFR Enzymatic Assay (FRET peptide phosphorylation), FGFR2; format: biochemical
Protocol: (§1) The inhibitor potency of the exemplified compounds was measured in an enzyme assay that measures peptide phosphorylation using FRET measurements to detect product formation. Inhibitors were serially diluted in DMSO and a volume of 0.5 μL was transferred to the wells of a 384-well plate.
(§2) The enzymes were purchased from Millipore or Invitrogen.
(§3) GraphPad prism3 was used to analyze the data.

[2] = biological target: FGFR3 enzyme (Homo sapiens (Human), UniProt P22607); assay: FGFR Enzymatic Assay (FRET peptide phosphorylation), FGFR3; format: biochemical; conditions: for FGFR1/FGFR3 IC50 ratio / FGFR4/FGFR3 IC50 ratio: FGFR3 selectivity; for pIC50: read-out: FGFR3 IC50
Protocol: as §1, §3

[3] = biological target: FGFR4 (Homo sapiens (Human), UniProt P22455); assay: FGFR Enzymatic Assay (FRET peptide phosphorylation), FGFR4; format: biochemical; conditions: for FGFR1/FGFR4 IC50 ratio / FGFR2/FGFR4 IC50 ratio / FGFR3/FGFR4 IC50 ratio: FGFR4 selectivity
Protocol: as §1, §2, §3

[4] = biological target: FGFR1 (Homo sapiens (Human), UniProt P11362); assay: FGFR Enzymatic Assay (FRET peptide phosphorylation), FGFR1; conditions: for IC50: FGFR1 IC50 (nM); for pIC50: read-out: FGFR1 IC50
[5] = pre-incubated for 5 to 10 minutes

FGFR3 enzyme, sequence (P22607 23-806): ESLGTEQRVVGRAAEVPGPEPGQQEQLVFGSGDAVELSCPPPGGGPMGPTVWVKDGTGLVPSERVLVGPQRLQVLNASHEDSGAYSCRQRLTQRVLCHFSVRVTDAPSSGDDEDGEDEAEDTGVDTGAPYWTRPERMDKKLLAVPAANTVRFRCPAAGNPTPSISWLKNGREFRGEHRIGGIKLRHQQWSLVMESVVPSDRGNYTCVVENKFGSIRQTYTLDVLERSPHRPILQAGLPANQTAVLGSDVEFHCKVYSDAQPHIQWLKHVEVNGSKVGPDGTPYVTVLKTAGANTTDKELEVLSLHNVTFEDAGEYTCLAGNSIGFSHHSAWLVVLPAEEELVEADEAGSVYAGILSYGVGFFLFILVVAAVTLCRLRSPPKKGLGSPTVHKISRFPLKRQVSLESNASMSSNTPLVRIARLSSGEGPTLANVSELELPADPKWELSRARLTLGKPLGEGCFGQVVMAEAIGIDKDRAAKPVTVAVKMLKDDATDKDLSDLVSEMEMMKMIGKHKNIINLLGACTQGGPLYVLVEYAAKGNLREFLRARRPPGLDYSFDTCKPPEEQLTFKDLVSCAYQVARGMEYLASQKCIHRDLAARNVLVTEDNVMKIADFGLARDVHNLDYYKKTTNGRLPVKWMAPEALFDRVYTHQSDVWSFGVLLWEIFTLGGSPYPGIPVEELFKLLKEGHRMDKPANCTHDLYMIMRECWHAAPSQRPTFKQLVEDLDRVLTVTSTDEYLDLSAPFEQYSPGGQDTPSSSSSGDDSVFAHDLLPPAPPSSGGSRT
FGFR4, sequence (P22455 22-802): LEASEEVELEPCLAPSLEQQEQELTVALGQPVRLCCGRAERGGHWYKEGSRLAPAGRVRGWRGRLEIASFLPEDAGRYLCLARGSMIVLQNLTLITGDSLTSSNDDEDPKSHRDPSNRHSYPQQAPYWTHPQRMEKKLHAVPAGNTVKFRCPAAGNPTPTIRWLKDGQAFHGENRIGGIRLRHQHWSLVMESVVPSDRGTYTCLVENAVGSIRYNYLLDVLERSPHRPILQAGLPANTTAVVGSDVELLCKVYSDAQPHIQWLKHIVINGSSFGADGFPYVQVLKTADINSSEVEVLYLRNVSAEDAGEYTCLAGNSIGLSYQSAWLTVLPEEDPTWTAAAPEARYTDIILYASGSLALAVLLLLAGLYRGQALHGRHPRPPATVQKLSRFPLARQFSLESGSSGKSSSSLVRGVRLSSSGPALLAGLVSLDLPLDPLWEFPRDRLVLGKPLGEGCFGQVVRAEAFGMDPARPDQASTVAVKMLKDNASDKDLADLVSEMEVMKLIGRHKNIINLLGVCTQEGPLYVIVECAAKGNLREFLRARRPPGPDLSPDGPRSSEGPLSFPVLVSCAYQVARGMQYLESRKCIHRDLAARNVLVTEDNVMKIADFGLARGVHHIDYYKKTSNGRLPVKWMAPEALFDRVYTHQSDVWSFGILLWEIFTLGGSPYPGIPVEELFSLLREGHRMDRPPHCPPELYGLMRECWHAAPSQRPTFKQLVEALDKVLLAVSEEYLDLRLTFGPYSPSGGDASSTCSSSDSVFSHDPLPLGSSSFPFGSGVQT
FGFR2, sequence (P21802 22-821): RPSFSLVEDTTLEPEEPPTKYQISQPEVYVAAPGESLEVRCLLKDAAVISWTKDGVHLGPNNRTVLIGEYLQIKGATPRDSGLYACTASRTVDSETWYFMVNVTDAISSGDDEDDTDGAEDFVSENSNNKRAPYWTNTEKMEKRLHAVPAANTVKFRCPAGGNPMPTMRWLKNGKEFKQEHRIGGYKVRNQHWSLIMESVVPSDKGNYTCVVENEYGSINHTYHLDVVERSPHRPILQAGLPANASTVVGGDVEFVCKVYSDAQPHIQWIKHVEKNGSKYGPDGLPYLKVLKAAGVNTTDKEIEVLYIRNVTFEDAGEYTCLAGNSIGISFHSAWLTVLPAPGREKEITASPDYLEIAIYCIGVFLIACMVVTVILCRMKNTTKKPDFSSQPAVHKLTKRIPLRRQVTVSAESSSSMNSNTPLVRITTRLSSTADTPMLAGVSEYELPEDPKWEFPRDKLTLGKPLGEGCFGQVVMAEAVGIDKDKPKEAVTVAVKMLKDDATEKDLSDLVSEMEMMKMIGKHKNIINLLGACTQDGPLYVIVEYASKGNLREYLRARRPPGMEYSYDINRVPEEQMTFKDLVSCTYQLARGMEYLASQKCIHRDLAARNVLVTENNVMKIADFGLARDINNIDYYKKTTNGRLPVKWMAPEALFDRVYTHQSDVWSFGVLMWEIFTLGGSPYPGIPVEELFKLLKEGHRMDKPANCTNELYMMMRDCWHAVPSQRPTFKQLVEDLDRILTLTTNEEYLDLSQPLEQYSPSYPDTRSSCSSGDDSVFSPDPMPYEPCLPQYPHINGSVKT
FGFR1, sequence (P11362 22-822): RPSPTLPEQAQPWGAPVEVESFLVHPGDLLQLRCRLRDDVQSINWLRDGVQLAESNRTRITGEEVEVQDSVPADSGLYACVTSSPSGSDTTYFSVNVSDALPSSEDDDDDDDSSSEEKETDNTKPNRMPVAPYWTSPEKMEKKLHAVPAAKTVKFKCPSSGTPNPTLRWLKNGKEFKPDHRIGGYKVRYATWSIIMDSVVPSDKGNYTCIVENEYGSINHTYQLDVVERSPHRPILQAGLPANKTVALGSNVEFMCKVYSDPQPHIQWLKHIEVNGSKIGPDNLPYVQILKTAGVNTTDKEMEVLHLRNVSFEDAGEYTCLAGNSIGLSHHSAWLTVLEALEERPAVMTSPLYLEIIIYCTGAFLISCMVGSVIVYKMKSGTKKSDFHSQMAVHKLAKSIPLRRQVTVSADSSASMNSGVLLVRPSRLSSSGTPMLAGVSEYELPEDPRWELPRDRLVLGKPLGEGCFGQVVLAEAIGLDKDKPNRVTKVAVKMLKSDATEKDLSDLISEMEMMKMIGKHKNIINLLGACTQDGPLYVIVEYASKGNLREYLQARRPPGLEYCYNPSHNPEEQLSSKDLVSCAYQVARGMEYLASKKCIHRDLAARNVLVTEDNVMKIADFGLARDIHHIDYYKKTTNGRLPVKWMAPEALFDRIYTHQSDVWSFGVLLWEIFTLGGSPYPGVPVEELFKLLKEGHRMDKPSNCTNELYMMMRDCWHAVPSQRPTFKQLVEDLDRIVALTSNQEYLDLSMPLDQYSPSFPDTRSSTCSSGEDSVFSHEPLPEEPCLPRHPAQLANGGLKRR

SMILES | pIC50 ([1]; pre-incubated for 4 hours) | FGFR1/FGFR3 IC50 ratio ([2]; pre-incubated for 4 hours) | FGFR4/FGFR3 IC50 ratio ([2]; pre-incubated for 4 hours) | pIC50 ([2]; pre-incubated for 4 hours) | pIC50 ([3]; pre-incubated for 4 hours) | IC50 ([4]; pre-incubated for 4 hours) [nM] | other results
COc1cc(OC)c(F)c(N2Cc3cnc(-c4cn(C)nc4C)cc3N(c3cnn(C4CC4)c3)C2=O)c1F [Example 130, 1-(1-cyclopropyl-1H-pyrazol-4-yl)-3-(2,6-difluoro-3,5-dimethoxyphenyl)-7-(1,3-dimethyl-1H-pyrazol-4-yl)-3,4-dihydropyrido[4,3-d]pyrimidin-2(1H)-one] | 7.52 to 8.00 | >5 | >5 | 7.52 to 8.00 | 6.70 to 7.52 | 30 to 200 | –
COc1cc(OC)c(F)c(N2Cc3cnc(-c4cn(C)nc4C)cc3N(Cc3ccnc(C)n3)C2=O)c1F [Example 121, 3-(2,6-difluoro-3,5-dimethoxyphenyl)-7-(1,3-dimethyl-1H-pyrazol-4-yl)-1-((2-methylpyrimidin-4-yl)methyl)-3,4-dihydropyrido[4,3-d]pyrimidin-2(1H)-one] | – | – | – | – | – | – | pIC50 [1, 5]: > 8.00; pIC50 [2, 5]: > 8.00; pIC50 [3, 5]: 6.70 to 7.52; IC50 [4, 5]: 10 to 30 nM
COc1cc(OC)c(F)c(N2Cc3cnc(-c4ccccc4)cc3C3(CC3)C2=O)c1F [Example 17, 2′-(2,6-difluoro-3,5-dimethoxyphenyl)-6′-phenyl-1′H-spiro[cyclopropane-1,4′-[2,7]naphthyridin]-3′(2′H)-one] | 6.70 to 7.52 | >10 | – | 7.52 to 8.00 | 7.52 to 8.00 | – | pIC50 ([4]; pre-incubated for 4 hours): < 6.70
COc1cc(OC)c(F)c(N2Cc3cnc(-c4cc(N)c(F)cc4C)cc3C3(CC3)C2=O)c1F [Example 2, 6′-(5-amino-4-fluoro-2-methylphenyl)-2′-(2,6-difluoro-3,5-dimethoxyphenyl)-1′H-spiro[cyclopropane-1,4′-[2,7]naphthyridin]-3′(2′H)-one] | < 6.70 | – | – | < 6.70 | 6.70 to 7.52 | – | pIC50 [1, 5]: < 6.70; pIC50 [2, 5]: < 6.70; FGFR1/FGFR4 IC50 ratio [3, 5]: >10; FGFR2/FGFR4 IC50 ratio [3, 5]: >10; FGFR3/FGFR4 IC50 ratio [3, 5]: >10; FGFR1/FGFR4 IC50 ratio ([3]; pre-incubated for 4 hours): >10; FGFR2/FGFR4 IC50 ratio ([3]; pre-incubated for 4 hours): >10; FGFR3/FGFR4 IC50 ratio ([3]; pre-incubated for 4 hours): >10; pIC50 [3, 5]: 6.70 to 7.52; pIC50 [4, 5]: < 6.70; pIC50 ([4]; pre-incubated for 4 hours): < 6.70
COc1cc(OC)c(F)c(N2Cc3cnc(-c4cn(C)nc4C)cc3N(Cc3ccc(F)c(F)c3)C2=O)c1F [Example 73, 3-(2,6-difluoro-3,5-dimethoxyphenyl)-1-(3,4-difluorobenzyl)-7-(1,3-dimethyl-1H-pyrazol-4-yl)-3,4-dihydropyrido[4,3-d]pyrimidin-2(1H)-one] | 7.52 to 8.00 | >5 | >10 | 7.52 to 8.00 | 6.70 to 7.52 | 30 to 200 | –
COc1cc(OC)c(F)c(N2Cc3cnc(-c4cn(C)nc4C)cc3N(Cc3cnccn3)C2=O)c1F [Example 85, 3-(2,6-difluoro-3,5-dimethoxyphenyl)-7-(1,3-dimethyl-1H-pyrazol-4-yl)-1-(pyrazin-2-ylmethyl)-3,4-dihydropyrido[4,3-d]pyrimidin-2(1H)-one] | 7.52 to 8.00 | >5 | >10 | > 8.00 | 6.70 to 7.52 | 30 to 200 | –
COc1cc(OC)c(F)c(N2Cc3cnc(-c4cn(C)nc4C)cc3N(c3ccc4ncsc4c3)C2=O)c1F [Example 41, 1-(1,3-benzothiazol-6-yl)-3-(2,6-difluoro-3,5-dimethoxyphenyl)-7-(1,3-dimethyl-1H-pyrazol-4-yl)-3,4-dihydropyrido[4,3-d]pyrimidin-2(1H)-one] | 7.52 to 8.00 | >1 | >5 | 7.52 to 8.00 | 6.70 to 7.52 | 30 to 200 | –

Further lines, with some results ahead:

pIC50 ([1]; pre-incubated for 4 hours) | FGFR1/FGFR3 IC50 ratio ([2]; pre-incubated for 4 hours) | FGFR4/FGFR3 IC50 ratio ([2]; pre-incubated for 4 hours) | pIC50 ([2]; pre-incubated for 4 hours) | pIC50 ([3]; pre-incubated for 4 hours) | IC50 ([4]; pre-incubated for 4 hours) [nM] | SMILES | other results
7.52 to 8.00 | >5 | >10 | 7.52 to 8.00 | 6.70 to 7.52 | 30 to 200 | COc1cc(OC)c(F)c(N2Cc3cnc(-c4cn(C)nc4C)cc3N(c3ccc(S(C)(=O)=O)cc3)C2=O)c1F [Example 98, 3-(2,6-difluoro-3,5-dimethoxyphenyl)-7-(1,3-dimethyl-1H-pyrazol-4-yl)-1-(4-(methylsulfonyl)phenyl)-3,4-dihydropyrido[4,3-d]pyrimidin-2(1H)-one] | –
> 8.00 | >5 | >5 | > 8.00 | > 8.00 | – | COc1cc(OC)c(F)c(N2Cc3cnc(-c4cnn(C5CCN(C(C)=O)C5)c4)cc3C3(CC3)C2=O)c1F (centres unmarked) [Example 150, 6′-(1-(1-acetylpyrrolidin-3-yl)-1H-pyrazol-4-yl)-2′-(2,6-difluoro-3,5-dimethoxyphenyl)-1′H-spiro[cyclopropane-1,4′-[2,7]naphthyridin]-3′(2′H)-one] | pIC50 ([4]; pre-incubated for 4 hours): > 8.00
> 8.00 | >5 | >10 | > 8.00 | 6.70 to 7.52 | 30 to 200 | COc1cc(OC)c(F)c(N2Cc3cnc(-c4cn(C)nc4C)cc3N(c3ccc(CC#N)cc3)C2=O)c1F [Example 97, 2-(4-(3-(2,6-difluoro-3,5-dimethoxyphenyl)-7-(1,3-dimethyl-1H-pyrazol-4-yl)-2-oxo-3,4-dihydropyrido[4,3-d]pyrimidin-1(2H)-yl)phenyl)acetonitrile] | –
> 8.00 | >3 | >3 | > 8.00 | 6.70 to 7.52 | 30 to 200 | COc1cc(OC)c(F)c(N2Cc3cnc(-c4cn(C5CCN(C)C5)nc4C)cc3C3(CC3)C2=O)c1F (centres unmarked) [Example 163, 2′-(2,6-difluoro-3,5-dimethoxyphenyl)-6′-(3-methyl-1-(1-methylpyrrolidin-3-yl)-1H-pyrazol-4-yl)-1′H-spiro[cyclopropane-1,4′-[2,7]naphthyridin]-3′(2′H)-one] | –
> 8.00 | >5 | >5 | > 8.00 | 6.70 to 7.52 | 30 to 200 | COc1cc(OC)c(F)c(N2Cc3cnc(-c4cn(C)nc4C)cc3N(Cc3cncnc3)C2=O)c1F [Example 84, 3-(2,6-difluoro-3,5-dimethoxyphenyl)-7-(1,3-dimethyl-1H-pyrazol-4-yl)-1-(pyrimidin-5-ylmethyl)-3,4-dihydropyrido[4,3-d]pyrimidin-2(1H)-one] | –
> 8.00 | >10 | >10 | > 8.00 | > 8.00 | – | COc1cc(OC)c(F)c(N2Cc3cnc(-c4cn(C)nc4C)cc3N(Cc3cnn(C4CC4)c3)C2=O)c1F [Example 124, 1-((1-cyclopropyl-1H-pyrazol-4-yl)methyl)-3-(2,6-difluoro-3,5-dimethoxyphenyl)-7-(1,3-dimethyl-1H-pyrazol-4-yl)-3,4-dihydropyrido[4,3-d]pyrimidin-2(1H)-one] | pIC50 ([4]; pre-incubated for 4 hours): > 8.00
> 8.00 | >5 | >3 | > 8.00 | > 8.00 | 10 to 30 | COc1cc(OC)c(F)c(N2Cc3cnc(-c4cnn(CCN5CCOCC5)c4)cc3C3(CC3)C2=O)c1F [Example 157, 2′-(2,6-difluoro-3,5-dimethoxyphenyl)-6′-(1-(2-morpholinoethyl)-1H-pyrazol-4-yl)-1′H-spiro[cyclopropane-1,4′-[2,7]naphthyridin]-3′(2′H)-one] | –
> 8.00 | >5 | >5 | > 8.00 | 7.52 to 8.00 | 10 to 30 | COc1cc(OC)c(F)c(N2Cc3cnc(-c4csc(N(C)C)n4)cc3C3(CC3)C2=O)c1F [Example 160, 2′-(2,6-difluoro-3,5-dimethoxyphenyl)-6′-(2-(dimethylamino)thiazol-4-yl)-1′H-spiro[cyclopropane-1,4′-[2,7]naphthyridin]-3′(2′H)-one] | –
